{"source": "patent US20240415808A1", "about": "“Dosage Regimen for Fexuprazan Injection Composition” (Daewoong Pharmaceutical Co., Ltd., priority 2021, published 2024)", "key": {"[1]": {"test": "single intravenous dose-escalation clinical trial, safety", "format": "in vivo, human", "conditions": "healthy adults, single intravenous 10, 20, 40, 80 mg", "procedure": "(§1) In order to confirm the safety/PK/PD of the compound of the present invention during intravenous administration, the clinical trial was designed with random assignment, double-blind, placebo-controlled, single dose, and stepwise dose-escalation in healthy adults (Korean/Chinese) between the ages of 19 and 50.\n(§2) The freeze-dried composition prepared as above was used, but a total of 28 subjects of 4, 8, 8, and 8 subjects each were enrolled for four dose groups (10 mg, 20 mg, 40 mg, and 80 mg) based on fexuprazan weight, and each group was randomly assigned to test or control groups in the order that they passed the screening criteria at a ratio of 3:1. All test subjects completed safety, pharmacokinetic, and pharmacodynamic evaluations according to the planned clinical trial schedule.\n(§3) Testing of the acidity (pH) in the gastrointestinal tract and gastric secretion promoting hormone gastrin were performed from 24 hours before medication to 24 hours after medication. Blood collection for pharmacokinetics and urine collection for pharmacokinetics were performed for 48 hours from the time of medication."}, "[2]": {"test_system": "acidity (pH) in the gastrointestinal tract", "test": "single intravenous dose-escalation clinical trial, acidity (pH) in the gastrointestinal tract", "format": "in vivo, human", "conditions": "healthy adults; for Fraction time pH ≥ 4 (%) / Fraction time pH ≥ 6 (%): 24 hours after medication", "procedure": "as §1\nA stabilizer (200 mg), a freeze-drying auxiliary agent (200 mg), and the previously prepared fexuprazan hydrochloride (40 mg based on fexuprazan weight) were dissolved in water for injection (4 mL), and an appropriate amount of acid was added thereto to adjust the pH to 4.0. The prepared solution was put into a vial, dried by a freeze-drying method, and prepared as a freeze-drying agent.\nas §2\nThe medication was performed in the morning, and the patient was discharged from the hospital on the third day of medication. Subsequently, a close-out visit was performed between the 8th and 11th day of medication.\nas §3"}, "[3]": {"test": "oral vs intravenous two-way crossover clinical trial, safety", "format": "in vivo, human", "conditions": "healthy adults, single 40 mg oral and 40 mg intravenous", "from_the_text": "(§4) Therefore, in order to compare the safety/PK/PD of the compound of the present invention during single intravenous administration and during single oral administration and derive the bioavailability, the clinical trial was designed as a randomized, open-label, single-dose, two-period, two-way crossover trial in healthy adults. The selection/exclusion criteria were the same as in Experimental Example 4. A total of 8 subjects were enrolled, and four subjects each were randomly assigned to sequence group 1 or sequence group 2 in the order in which they passed the screening criteria. All test subjects completed safety, pharmacokinetic, and pharmacodynamic evaluations according to the planned clinical trial schedule.\nas §3"}, "[4]": {"test_system": "acidity (pH) in the gastrointestinal tract", "test": "oral vs intravenous two-way crossover clinical trial, acidity (pH) in the gastrointestinal tract", "format": "in vivo, human", "conditions": "healthy adults", "from_the_text": "as §4\nA screening visit was performed 3 to 28 days before the start of the clinical trial, and hospital admission was performed 2 days before medication. The first phase medication was performed according to the order group randomly assigned on the morning of the day. A stabilizer (200 mg), a freeze-drying auxiliary agent (200 mg), and the previously prepared fexuprazan hydrochloride (40 mg based fexuprazan weight) were dissolved in water for injection (4 mL), an appropriate amount of acid was added thereto. A composition whose pH was adjusted to 4.0 was administered intravenously, or an excipient (100 mg), a disintegrant (5 mg), and the previously prepared fexuprazan hydrochloride (40 mg based on fexuprazan weight) were mixed and compressed to prepare a tablet, which were administered orally. The hospital discharge was performed on the third day of medication. The second phase medication was performed on the morning of the 8th after hospital admission on the 6th day after the first phase medication. Hospital discharge was performed on the 10th day of medication. Subsequently, a close-out visit was performed between 15 and 18 days after medication (FIG. 6).\nas §3"}, "[5]": {"test": "4-week repeated intravenous toxicity test, rat", "format": "in vivo", "procedure": "The previously prepared fexuprazan hydrochloride was dissolved in a solution containing 30 wt. % of polyethylene glycol (Polyethylene Glycol 400) polymer in physiological saline, and the concentration was calculated based on fexuprazan weight so that it could be administered at a liquid volume of 5 mL/kg for rats and 2 mL/kg for beagle dogs to prepare each composition. Toxicity was evaluated by intravenously administering at doses of 0, 2.5, 5, and 10 mg/kg/day to rats and beagle dogs, respectively, once a day for 4 weeks."}, "[6]": {"test": "pharmacokinetic experiment in male rats (oral and tail vein)", "format": "in vivo, rat", "procedure": "Methylcellulose was dissolved in physiological saline to prepare a solution containing methylcellulose at a concentration of 0.5 wt %, and then the previously prepared fexuprazan hydrochloride was added thereto to prepare a composition with Fexuprazan at a concentration of 1 mg/mL. The composition prepared above was orally administered to male rats at a dose of 2 mg/kg in a liquid volume of 2 mL/kg depending on the body weight of the individual, and then blood was collected using an orbital blood collection method at 0.25, 0.5, 1, 2, 4, 6, 8, and 24 hours, and centrifuged at 10,000 rpm for 5 minutes. Plasma was collected, analyzed by HPLC-MS/MS, and pharmacokinetic parameters were calculated.\nThen, methylcellulose was dissolved in physiological saline to prepare a solution containing methylcellulose at a concentration of 0.5 wt,%, and then the previously prepared fexuprazan hydrochloride was added thereto to prepare a composition with fexuprazan at a concentration of 1 mg/mL. The composition was administered through the tail vein in male rats at a dose of 1 mg/kg in a liquid volume of 1 mL/kg depending on the body weight of the individual. Blood was collected by the same method as in oral administration at 0.083, 0.25, 0.5, 1, 2, 4, 6, 8, and 24 hours, and then analyzed."}, "[7]": {"conditions": "intravenous administration (40 mg)"}}, "note": "Several values for one entry are separate records, joined by “and”; a condition that tells them apart may be missing. Equal values may be shown once."}
{"smiles": "CNCc1cn(S(=O)(=O)c2cccc(F)c2)c(-c2ccc(F)cc2F)c1OC", "note": "[Fexuprazan, 1-(5-(2,4-difluorophenyl)-1-((3-fluorophenyl)sulfonyl)-4-methoxy-1H-pyrrol-3-yl)-N-methylmethanamine]", "values": [{"measurement": "serious abnormalities or side effects", "setting": "[1]", "value": "no serious abnormalities or side effects were observed"}, {"measurement": "time during which the pH maintained above 6 for 12 hours", "setting": "[2]; intravenous administration of 40 mg, 12 hours", "value": "≥ 50", "unit": "%"}, {"measurement": "Mean pH", "setting": "[2]; single intravenous 10 mg", "value": "2.7 ± 0.1"}, {"measurement": "Median pH", "setting": "[2]; single intravenous 10 mg", "value": "2.1 ± 0.2"}, {"measurement": "Fraction time pH ≥ 4 (%)", "setting": "[2]; single intravenous 10 mg", "value": "20.4 ± 2.6", "unit": "%"}, {"measurement": "Fraction time pH ≥ 6 (%)", "setting": "[2]; single intravenous 10 mg", "value": "2.9 ± 2.0", "unit": "%"}, {"measurement": "Mean pH", "setting": "[2]; single intravenous 20 mg", "value": "3.9 ± 0.8"}, {"measurement": "Median pH", "setting": "[2]; single intravenous 20 mg", "value": "3.8 ± 1.3"}, {"measurement": "Fraction time pH ≥ 4 (%)", "setting": "[2]; single intravenous 20 mg", "value": "46.7% and 46.7 ± 19.0%"}, {"measurement": "Fraction time pH ≥ 6 (%)", "setting": "[2]; single intravenous 20 mg", "value": "16.7 ± 14.6", "unit": "%"}, {"measurement": "Mean pH", "setting": "[2]; single intravenous 40 mg", "value": "4.9 ± 0.3"}, {"measurement": "Median pH", "setting": "[2]; single intravenous 40 mg", "value": "5.4 ± 0.6"}, {"measurement": "Fraction time pH ≥ 4 (%)", "setting": "[2]; single intravenous 40 mg", "value": "71.0 ± 10.3", "unit": "%"}, {"measurement": "Fraction time pH ≥ 6 (%)", "setting": "[2]; single intravenous 40 mg", "value": "38.3 ± 9.0", "unit": "%"}, {"measurement": "Mean pH", "setting": "[2]; single intravenous 80 mg", "value": "5.9 ± 0.4"}, {"measurement": "Median pH", "setting": "[2]; single intravenous 80 mg", "value": "6.2 ± 0.3"}, {"measurement": "Fraction time pH ≥ 4 (%)", "setting": "[2]; single intravenous 80 mg", "value": "92.9 ± 4.8", "unit": "%"}, {"measurement": "Fraction time pH ≥ 6 (%)", "setting": "[2]; single intravenous 80 mg", "value": "59.65% and 59.7 ± 15.7%"}, {"measurement": "serious abnormalities or side effects", "setting": "[3]", "value": "no serious abnormalities or side effects were observed"}, {"measurement": "Fraction time pH ≥ 4 (%)", "setting": "[4]; [7]", "value": "71.6% and 71.6 ± 13.5%"}, {"measurement": "Fraction time pH ≥ 6 (%)", "setting": "[4]; [7]", "value": "38.7 ± 10.9", "unit": "%"}, {"measurement": "Mean pH", "setting": "[4]; [7]", "value": "4.9 and 4.9 ± 0.5"}, {"measurement": "Median pH", "setting": "[4]; [7]", "value": "5.5 ± 0.7"}, {"measurement": "Fraction time pH ≥ 4 (%)", "setting": "[4]; oral administration (40 mg)", "value": "47.5% and 47.5 ± 14.2%"}, {"measurement": "Fraction time pH ≥ 6 (%)", "setting": "[4]; oral administration (40 mg)", "value": "20.3 ± 12.8", "unit": "%"}, {"measurement": "Mean pH", "setting": "[4]; oral administration (40 mg)", "value": "3.9 and 3.9 ± 0.7"}, {"measurement": "Median pH", "setting": "[4]; oral administration (40 mg)", "value": "3.9 ± 1.2"}, {"measurement": "Result: harmless dose", "setting": "[5]; Rat, 4 weeks, intravenous, doses 0, 2.5, 5, 10", "value": "harmless dose 10 mg/kg"}, {"measurement": "toxic symptoms due to the test substance", "setting": "[5]; rats, 2.5, 5, 10 mg/kg/day intravenous, 4 weeks", "value": "no toxic symptoms due to the test substance were observed in all administration groups"}, {"measurement": "harmless dose", "setting": "[5]; rats, intravenous once a day for 4 weeks", "value": 10, "unit": "mg/kg/day"}, {"measurement": "BA", "setting": "[6]; PO 2 mg/kg vs IV 1 mg/kg", "value": 24.7, "unit": "%"}, {"measurement": "AUC(0-t)", "setting": "[6]; rat, plasma, IV 1 mg/kg", "value": "143 ± 38", "unit": "ng·h/mL"}, {"measurement": "Vd", "setting": "[6]; rat, plasma, IV 1 mg/kg", "value": "20.2 ± 5.2", "unit": "L/kg"}, {"measurement": "clearance", "setting": "[6]; rat, plasma, IV 1 mg/kg", "value": "114 ± 29", "unit": "mL/min/kg"}, {"measurement": "half-life", "setting": "[6]; rat, plasma, IV 1 mg/kg", "value": "2.06 ± 0.25", "unit": "h"}, {"measurement": "AUC(0-t)", "setting": "[6]; rat, plasma, PO 2 mg/kg", "value": "70.9 ± 22.4", "unit": "ng·h/mL"}, {"measurement": "Cmax", "setting": "[6]; rat, plasma, PO 2 mg/kg", "value": "23.8 ± 10.7", "unit": "ng/mL"}, {"measurement": "Tmax", "setting": "[6]; rat, plasma, PO 2 mg/kg", "value": "0.833 ± 0.289", "unit": "h"}, {"measurement": "half-life", "setting": "[6]; rat, plasma, PO 2 mg/kg", "value": "1.74 ± 0.16", "unit": "h"}]}
